# Where two headings read alike, the source gives them in different places.
# Tests used:
# [1] = general statement in the description; cited from earlier work
# [2] = Renal clearance in a bilaterally nephrectomized rat (fluorescence from within the ear); assay type: in vivo, Sprague-Dawley rat; conditions: bilaterally nephrectomized rat compared with intact rat
# Method: An anesthetized Sprague-Dawley rat was bilaterally nephrectomized. Incident laser light having a wavelength of about 470 nm was delivered via a fiber optic bundle to the ear of the rat. A photodetector was used to detect fluorescence from within the ear. A background reading of fluorescence was obtained prior to administration of the pyrazine agent. The pyrazine agent (2 ml of a 0.4 mg/ml solution of 3,6-diaminopyrazine-2,5-dicarbonyl acid in PBS) was then administered to the rat by a bolus injection into the lateral tail vein. […] Specifically, the renal arteries were tied off to block blood flow to the kidneys.
# A comparison of clearance data from the intact rat (FIG. 1) and the bilaterally nephrectomized rat (FIG. 2) is shown in FIG. 3.
# [3] = Excitation and emission wavelengths of optical agents; assay type: physicochemical; conditions: see Example 3 and FIG. 4
# Source text: In one exemplary embodiment, the optical agent is excited by light having a wavelength in the blue range of the visible portion of the electromagnetic spectrum (from about 430 nm to about 500 nm) and emits at a wavelength in the green range of the visible portion of the electromagnetic spectrum (from about 520 nm to about 565 nm). For example, fluorescein dyes can be excited with light with a wavelength of about 488 nm and have an emission wavelength of about 520 nm. As another example, 3,6-diaminopyrazine-2,5-dicarboxylic acid can be excited with light having a wavelength of about 470 nm and fluoresces at a wavelength of about 532 nm (see Example 3 and FIG. 4 herein).
# In another embodiment, the excitation and emission wavelengths of the optical agent may fall in the near-infrared range of the electromagnetic spectrum. For example, indocyanine dyes, such as indocyanine green, can be excited with light with a wavelength of about 780 nm and have an emission wavelength of about 830 nm.
# [4] = Renal clearance in an intact rat (fluorescence from within the ear); assay type: in vivo, Sprague-Dawley rat; conditions: bolus injection into lateral tail vein, 2 ml of 0.4 mg/ml in PBS, 470 nm laser at ear
# Method: Incident laser light having a wavelength of about 470 nm was delivered via a fiber optic bundle to the ear of an anesthetized intact Sprague-Dawley rat. A photodetector was used to detect fluorescence from within the ear. A background reading of fluorescence was obtained prior to administration of optical agent. A pyrazine agent (2 ml of a 0.4 mg/ml solution of 3,6-diaminopyrazine-2,5-dicarbonyl acid in PBS) was then administered to the rat by a bolus injection into the lateral tail vein.
# The blood clearance time profile likely followed a two compartment pharmacokinetic model. The fluorescent signal arising from the agent concentration in the blood as a function of time was therefore fit to a double exponential decay. The equation employed to fit the data was: S=Ae^−t/τ1Be^−t/τ2+C (1) where S is the fluorescent light intensity signal measured, and t is the time point of the measurement. The decay times τ1 and τ2, and the constants A, B, and C were deduced from the fitting procedure. The non-linear regression analysis package in SigmaPiot® (Systat Software Inc., Richmond Calif.) was used to fit data to Eq. (1). In this and the following example, τ1 represents the time constant for vascular-extracellular fluid equilibrium, and T2 represents optical agent clearance from the blood.
# [5] = Detection of optical agent in a rat ureter by fluorescence; assay type: in vivo, Sprague-Dawley rat
# Method: A Sprague-Dawley rat was anesthetized with a cocktail of ketamine (87 mg/kg) and xylazine (2.6 mg/kg) administered by intraperitoneal injection. After the animal had achieved the desired plane of anesthesia, a 25 gauge butterfly with 3″ tubing was placed in the lateral tail vein of the animal and flushed with saline, The rat was placed onto a heating pad and kept warm throughout the study.
# An abdominal incision was made to access the ureters and expose the ureters to a laser having the appropriate wavelength to cause the optical agent employed to fluoresce. Data acquisition was initiated, and a background reading of fluorescence was obtained prior to administration of the optical agent.
# The optical agent, 3,6-diaminopyrazine-2,5-dicarboxylic acid, was administered to the rat by a bolus injection into the lateral tail vein and traveled through the circulatory system and kidneys to reach the ureters. The dose of optical agent was about 2 mL of 0.4 mg/mL solution in PBS. The rat weighed approximately 250 g.
# A 3 mW laser from Power Technology, Inc. (Little Rock, […].) was used to emit light into one end of a fiber optic bundle, the other end of the bundle being positioned adjacent the ureter. […] As shown in FIGS. 5-6, when the surgical field was exposed to incident light having a wavelength of about 470 nm, the optical agent within the ureters emitted fluorescent energy at a wavelength of about 530 nm. Images of the surgical field showing the fluorescing optical agent in the ureter are shown in FIGS. 5-6 (in the absence of a 500 nm long pass filter) and FIG. 7 (in the presence of a 500 nm long pass filter).
SMILES,emission wavelength [1],excitation wavelength [1],route of excretion concluded from failure to clear [2],fluorescence emission wavelength ([3]; excitation about 470 nm),excitation wavelength [3],period over which the agent was cleared from the bloodstream [4],"fluorescence emission wavelength within the ureters ([5]; incident light of about 470 nm, in vivo in rat ureter)","time after intravenous administration at which fluorescence within the ureter was detected ([5]; rat, about 2 mL of 0.4 mg/mL in PBS, tail vein bolus)","localisation of fluorescence in the surgical field ([5]; rat, ureter versus surrounding tissue)"
CC1(C)C(/C=C/C=C/C=C/C=C2\N(CCCCS(=O)(=O)O)c3ccc4ccccc4c3C2(C)C)=[N+](CCCCS(=O)(=O)[O-])c2ccc3ccccc3c21 [indocyanine green],about 830 nm,about 780 nm,–,–,–,–,–,–,–
"Nc1nc(C(=O)O)c(N)nc1C(=O)O [3,6-diaminopyrazine-2,5-dicarboxylic acid]",–,–,renally excretable,about 532 nm,about 470 nm,slightly over twenty,about 530 nm,about 40 minutes,only observed from the ureter and not from any surrounding tissue

# Source: patent publication US11351274B2, “Methods of using optical agents” (MediBeacon Inc., priority 2006, dated 2022)
